System: 282377-053-R-J1-PDC complex spheroids, viability
Experiment: Anticancer human tumor 282377-053-R-J1-PDC patient-derived colon adenocarcinoma cell line growth inhibition [GQUAD]
Conditions: for IC50: curve of first compound; for viability, T/C: stronger effect = lower value
Description: DNA G-quadruplex Stabilizer Agents in Combinations in Complex Spheroids
A high-throughput screen of multi-cell type tumor spheroids was designed to identify active combinations of DNA G-quadruplex stabilizer agents and targeted small molecules. Complex spheroids include a stromal component modeled by human endothelial cells (HUVEC) and fibroblasts modeled by human mesenchymal stem cells (MSCs). The concentration ranges selected for each drug and investigational agent were based upon clinically achievable concentrations if the clinical Cmax of the agent was known.
Compounds. The drugs and investigational agents: pidnarulex (CX-5461; NSC782164), APTO-253 (NSC789042), BRACO-19 (NSC847499), peposertib (NSC802822), ceralasertib (NSC780249), elimusertib (NSC800525), camonsertib (NSC841442), AZD-1390 (NSC803789), olaparib (NSC753686), talazoparib (NSC767125), ART-558 (NSC835418), sotorasib (NSC818433), MRTX-1133 (NSC836407), SN-38 (NSC673596), topotecan (NSC609699), etoposide (NSC141540), doxorubicin (NSC123127), gemcitabine (NSC613327), 5-fluorouracil (NSC19893), paclitaxel (NSC125973), vemurafenib (NSC761431), panobinostat (NSC761190), R-306465 (JNJ-16241199; NSC773264), adavosertib (NSC754352), TP-3654 (NSC805149), carboplatin (NSC241240), KSQ-4279 (NSC840948), and staurosporine (NSC755774) were obtained from the National Cancer Institute (NCI) Developmental Therapeutics Program Chemical Repository (34). The FDA-approved anticancer drug set is available from the NCI Developmental Therapeutics Program. […] The stock solutions were prepared in dimethyl sulfoxide (DMSO, Sigma-Aldrich, St. Louis, MO, cat. D2650) at 800-fold the tested concentration and stored at -70 degrees C prior to their use. All drugs and investigational agents were tested over a range starting from a high concentration at or near the clinical Cmax and decreasing in half-log increments. If the clinical Cmax for an agent had not been determined, the highest concentration tested was 10 microM.
2.3 Cell Culture. All cells were maintained in an incubator at 37 degrees C and 5% CO2 with 95% humidity. The PDC lines were cultured according to standard operating procedures established by the NCI PDMR. All PDCs were thawed and cultured in Matrigel-coated flasks prepared with a working solution of 1X Ham's F-12 nutrient mix, without supplementation (Invitrogen, cat. 11765054), 100 U/mL penicillin-streptomycin (Invitrogen, cat. 15140122), and 2.5% Matrigel (Corning Inc., cat. 354248) for the first three passages. The 857933-349-R-J2-PDC line was cultured in 6C/Colon 1B media, which includes advanced DMEM/F-12 (Thermo Fisher Scientific, cat. 12634028), 10 mM HEPES (Thermo Fisher Scientific, cat. 15630080), 1X GlutaMAX supplement (Thermo Fisher Scientific, cat. 35050061), 0.1 mg/mL primocin (InvivoGen, cat. ant-pm-2), 10% defined fetal bovine serum, heat inactivated (HyClone Laboratories Inc., cat. SH30070.03HI), 50% L-WRN conditioned media (ATCC, cat. CRL-3276), 1.25 mM N-Acetyl-L-cysteine (Sigma-Aldrich, cat. A9165), 10 mM nicotinamide (Sigma-Aldrich, cat. N0636), 1X B-27 supplement (Thermo Fisher Scientific, cat. 17504044), 1X N-2 supplement (Thermo Fisher Scientific, cat. 17502048), 10 microM Y-27632 dihydrochloride (Tocris Bioscience, cat. 1254), and 50 ng/mL human EGF recombinant protein (Thermo Fisher Scientific, cat. PHG0311). The 485176-168-R4-J1-PDC line was cultured in Panc media, which includes all 6C/Colon 1B media components plus 100 ng/mL human FGF-10 (Thermo Fisher Scientific, cat. 100-26), 500 nM SB-431542 (Selleckchem, cat. S1067), and gastrin (Tocris, cat. 3006).
[…]

[1] = second compound 0.0316 µM, first compound 0.0316 µM
[2] = second compound 0.0316 µM, first compound 0.1 µM
[3] = second compound 0.0316 µM, first compound 0.316 µM
[4] = second compound 0.0316 µM, first compound 1 µM
[5] = second compound 0.0316 µM, first compound 3.16 µM
[6] = second compound 0.0316 µM, first compound 10 µM
[7] = second compound 0.1 µM, first compound 0.0316 µM
[8] = second compound 0.1 µM, first compound 0.1 µM
[9] = second compound 0.1 µM, first compound 0.316 µM
[10] = second compound 0.1 µM, first compound 1 µM
[11] = second compound 0.1 µM, first compound 3.16 µM
[12] = second compound 0.1 µM, first compound 10 µM
[13] = second compound 0.316 µM, first compound 0.0316 µM
[14] = second compound 0.316 µM, first compound 0.1 µM
[15] = second compound 0.316 µM, first compound 0.316 µM
[16] = second compound 0.316 µM, first compound 1 µM
[17] = second compound 0.316 µM, first compound 3.16 µM
[18] = second compound 0.316 µM, first compound 10 µM
[19] = second compound 1 µM, first compound 0.0316 µM
[20] = second compound 1 µM, first compound 0.1 µM
[21] = second compound 1 µM, first compound 0.316 µM
[22] = second compound 1 µM, first compound 1 µM
[23] = second compound 1 µM, first compound 3.16 µM
[24] = second compound 1 µM, first compound 10 µM
[25] = second compound 3.16 µM, first compound 0.0316 µM
[26] = second compound 3.16 µM, first compound 0.1 µM
[27] = second compound 3.16 µM, first compound 0.316 µM
[28] = second compound 3.16 µM, first compound 1 µM
[29] = second compound 3.16 µM, first compound 3.16 µM
[30] = second compound 3.16 µM, first compound 10 µM
[31] = second compound 10 µM, first compound 0.0316 µM
[32] = second compound 10 µM, first compound 0.1 µM
[33] = second compound 10 µM, first compound 0.316 µM
[34] = second compound 10 µM, first compound 1 µM
[35] = second compound 10 µM, first compound 3.16 µM
[36] = second compound 10 µM, first compound 10 µM
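Further: spheroids exposed to compounds for 7 days before readout.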
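Wherever viability, T/C is given: percent of vehicle DMSO control viability with 100% = untreated-like growth.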

CC(C)(O)C1CCC(Nc2ccc3ncc(-c4cccc(C(F)(F)F)c4)n3n2)CC1 (stereo unspecified) + Cc1cnc(CNC(=O)c2c(=O)c3ccc(N4CCCN(C)CC4)nc3n3c2sc2ccccc23)cn1
IC50 (second compound 0.0316 µM): 1680 nM
IC50 (second compound 0.1 µM): 910 nM
IC50 (second compound 0.316 µM): 1330 nM
IC50 (second compound 1 µM): 361 nM
IC50 (second compound 3.16 µM): < 31.6 nM
IC50 (second compound 10 µM): < 31.6 nM
viability, T/C [1]: 96.9%
viability, T/C [2]: 83.3%
viability, T/C [3]: 93.2%
viability, T/C [4]: 78.4%
viability, T/C [5]: 12%
viability, T/C [6]: 18.7%
viability, T/C [7]: 113%
viability, T/C [8]: 79.1%
viability, T/C [9]: 68.8%
viability, T/C [10]: 62.5%
viability, T/C [11]: 16%
viability, T/C [12]: 20.9%
viability, T/C [13]: 77.9%
viability, T/C [14]: 82.2%
viability, T/C [15]: 77.9%
viability, T/C [16]: 57.9%
viability, T/C [17]: 22.4%
viability, T/C [18]: 29.7%
viability, T/C [19]: 62.1%
viability, T/C [20]: 45.2%
viability, T/C [21]: 46.5%
viability, T/C [22]: 40.5%
viability, T/C [23]: 7.32%
viability, T/C [24]: 18.9%
viability, T/C [25]: 45%
viability, T/C [26]: 45%
viability, T/C [27]: 42%
viability, T/C [28]: 34.3%
viability, T/C [29]: 0.13%
viability, T/C [30]: 0.15%
viability, T/C [31]: 34.2%
viability, T/C [32]: 21.1%
viability, T/C [33]: 12.3%
viability, T/C [34]: 0.24%
viability, T/C [35]: 0.89%
viability, T/C [36]: 0.2%

CC[C@@]1(O)C(=O)OCc2c1cc1n(c2=O)Cc2cc3c(CN(C)C)c(O)ccc3nc2-1 + Cc1cnc(CNC(=O)c2c(=O)c3ccc(N4CCCN(C)CC4)nc3n3c2sc2ccccc23)cn1
IC50 (second compound 0.0316 µM): > 316 nM
IC50 (second compound 0.1 µM): > 316 nM
IC50 (second compound 0.316 µM): > 316 nM
IC50 (second compound 1 µM): 115 nM
IC50 (second compound 3.16 µM): 10.8 nM
IC50 (second compound 10 µM): < 0.999 nM
viability, T/C (second compound 0.0316 µM, first compound 0.000999 µM): 136%
viability, T/C (second compound 0.0316 µM, first compound 0.00316 µM): 115%
viability, T/C (second compound 0.0316 µM, first compound 0.00999 µM): 125%
viability, T/C [1]: 107%
viability, T/C (second compound 0.0316 µM, first compound 0.0999 µM): 79.7%
viability, T/C [3]: 66.7%
viability, T/C (second compound 0.1 µM, first compound 0.000999 µM): 110%
viability, T/C (second compound 0.1 µM, first compound 0.00316 µM): 116%
viability, T/C (second compound 0.1 µM, first compound 0.00999 µM): 89.5%
viability, T/C [7]: 90.9%
viability, T/C (second compound 0.1 µM, first compound 0.0999 µM): 84.2%
viability, T/C [9]: 73.1%
viability, T/C (second compound 0.316 µM, first compound 0.000999 µM): 96.3%
viability, T/C (second compound 0.316 µM, first compound 0.00316 µM): 87.3%
viability, T/C (second compound 0.316 µM, first compound 0.00999 µM): 86.4%
viability, T/C [13]: 88.6%
viability, T/C (second compound 0.316 µM, first compound 0.0999 µM): 71%
viability, T/C [15]: 57.7%
viability, T/C (second compound 1 µM, first compound 0.000999 µM): 72.4%
viability, T/C (second compound 1 µM, first compound 0.00316 µM): 66.6%
viability, T/C (second compound 1 µM, first compound 0.00999 µM): 58.3%
viability, T/C [19]: 50.9%
viability, T/C (second compound 1 µM, first compound 0.0999 µM): 53.1%
viability, T/C [21]: 47.5%
viability, T/C (second compound 3.16 µM, first compound 0.000999 µM): 54.1%
viability, T/C (second compound 3.16 µM, first compound 0.00316 µM): 56.6%
viability, T/C (second compound 3.16 µM, first compound 0.00999 µM): 50.1%
viability, T/C [25]: 41.8%
viability, T/C (second compound 3.16 µM, first compound 0.0999 µM): 51.3%
viability, T/C [27]: 47.3%
viability, T/C (second compound 10 µM, first compound 0.000999 µM): 46.1%
viability, T/C (second compound 10 µM, first compound 0.00316 µM): 50.2%
viability, T/C (second compound 10 µM, first compound 0.00999 µM): 49.8%
viability, T/C [31]: 49.2%
viability, T/C (second compound 10 µM, first compound 0.0999 µM): 43.3%
viability, T/C [33]: 48.6%

O=C(c1cc(Cc2n[nH]c(=O)c3ccccc23)ccc1F)N1CCN(C(=O)C2CC2)CC1 + Cc1cnc(CNC(=O)c2c(=O)c3ccc(N4CCCN(C)CC4)nc3n3c2sc2ccccc23)cn1
IC50 (second compound 0.0316 µM): > 10000 nM
IC50 (second compound 0.1 µM): > 10000 nM
IC50 (second compound 0.316 µM): > 10000 nM
IC50 (second compound 1 µM): > 10000 nM
IC50 (second compound 3.16 µM): 2430 nM
IC50 (second compound 10 µM): 70.1 nM
viability, T/C [1]: 103%
viability, T/C [2]: 100%
viability, T/C [3]: 140%
viability, T/C [4]: 92.9%
viability, T/C [5]: 90.6%
viability, T/C [6]: 89.2%
viability, T/C [7]: 106%
viability, T/C [8]: 121%
viability, T/C [9]: 93%
viability, T/C [10]: 84.9%
viability, T/C [11]: 110%
viability, T/C [12]: 92.3%
viability, T/C [13]: 84.2%
viability, T/C [14]: 91.9%
viability, T/C [15]: 74.6%
viability, T/C [16]: 89.8%
viability, T/C [17]: 95.6%
viability, T/C [18]: 73.3%
viability, T/C [19]: 61.2%
viability, T/C [20]: 55.8%
viability, T/C [21]: 54.7%
viability, T/C [22]: 61%
viability, T/C [23]: 60.8%
viability, T/C [24]: 54%
viability, T/C [25]: 60.8%
viability, T/C [26]: 51.1%
viability, T/C [27]: 59.2%
viability, T/C [28]: 52.3%
viability, T/C [29]: 46.2%
viability, T/C [30]: 48.6%
viability, T/C [31]: 52.9%
viability, T/C [32]: 47.4%
viability, T/C [33]: 47.7%
viability, T/C [34]: 48.9%
viability, T/C [35]: 40.1%
viability, T/C [36]: 46.6%

From PubChem BioAssay AID2060501 (Molecular Pharmacology Branch, DTP, NCI, 2025)
